According to patent publication US20220386611A1, “NOVEL HETEROARYL-TRIAZOLE COMPOUNDS AS PESTICIDES” (Bayer Aktiengesellschaft, priority 2019, published 2022):

Key:
Assay type in all cases: in vivo
[1] = tested on: Rhipicephalus microplus larvae (strain Parkhurst, resistant against synthetic pyrethroids); experiment: Rhipicephalus (Boophilus) microplus in-vitro contact test, larval cattle tick; settings: 5 μg/cm^2 (=500 g/ha), after 48 hours, read-out: efficacy (larvae dead or moribund)
Experimental: Rhipicephalus (Boophilus) Microplus—In-Vitro Contact Tests Larval Cattle Tick (Strain Parkhurst, Resistant Against Synthetic Pyrethroids)
(§1) 9 mg compound is solved in 1 mL acetone and diluted with acetone to the desired concentration. 250 μL of the test solution is filled in 25 mL glass test tubes and homogeneously distributed on the inner walls by rotation and tilting on a shaking device (2 h at 30 rpm). With a compound concentration of 900 ppm, an inner surface of 44.7 cm^2 and a homogeneous distribution, a dose of 5 μg/cm^2 is achieved.
After the solvent has evaporated, each test tube is filled with 20-50 cattle tick larvae (Rhipicephalus microplus), closed with a perforated lid and incubated in a horizontal position at 85% relative humidity and 27° C. in an incubator. After 48 hours efficacy is determined. The larvae are patted on the ground of the tubes and negative geotactic behaviour is recorded.
An efficacy of 100% means all larvae are dead or moribund; 0% means no larvae are dead or moribund.

[2] = tested on: adult engorged female ticks (Rhipicephalus microplus); experiment: Rhipicephalus (Boophilus) microplus injection test; settings: 168 h, after 7 days, read-out: efficacy (infertile eggs); for pest or weed control at 0.004 mg: 4 μg/animal; for pest or weed control at 0.02 mg: 20 μg/animal
Experimental: Rhipicephalus (Boophilus) microplus—Injection Test
(§2) Solvent: dimethyl sulfoxide
To produce a suitable preparation of active compound, 10 mg of active compound are dissolved in 0.5 mL solvent, and the concentrate is diluted with solvent to the desired concentration.
Five adult engorged female ticks (Rhipicephalus microplus) are injected with 1 μL compound solution into the abdomen. The ticks are transferred into replica plates and incubated in a climate chamber.
After 7 days egg deposition of fertile eggs is monitored. Eggs where fertility is not visible are stored in a climate chamber till hatching after about 42 days. An efficacy of 100% means all eggs are infertile; 0% means all eggs are fertile.

[3] = tested on: larvae of the banded cucumber beetle (Diabrotica balteata); experiment: Diabrotica balteata spray test; settings: 168 h, 100 g/ha (=32 μg/well), after 7 days, wheat seeds, read-out: efficacy (seedlings grown like untreated, uninfected control)
Experimental: Diabrotica balteata—spray test
Solvent: 78.0 parts by weight of acetone
1.5 parts by weight of dimethylformamide
(§3) Emulsifier: alkylarylpolyglycol ether
To produce a suitable preparation of active compound, 1 part by weight of active compound is mixed with the stated amount of solvent, and the concentrate is diluted with water, containing an emulsifier concentration of 1000 ppm, to the desired concentration. Further test concentrations are prepared by dilution with emulsifier containing water.
Soaked wheat seeds (Triticum aestivum) are placed in a multiple well plate filled with agar and some water and are incubated for 1 day to germinate (5 seeds per well). The germinated wheat seeds are sprayed with a test solution containing the desired concentration of the active ingredient. Afterwards each unit is infected with 10-20 larvae of the banded cucumber beetle (Diabrotica balteata).
After 7 days efficacy in % is determined. 100% means all the seedlings have grown up like in the untreated, uninfected control; 0% means none of the seedlings have grown.

[4] = tested on: fall armyworm larvae (Spodoptera frugiperda); experiment: Spodoptera frugiperda spray test; settings: in Zea mays, 168 h
Experimental: Spodoptera frukiperda—Spray Test
(§4) Solvent: 78.0 parts by weight acetone • 1.5 parts by weight dimethylformamide
as §3
(§5) To produce a suitable preparation of active compound, 1 part by weight of active compound is mixed with the stated amount of solvents and is diluted with water, containing an emulsifier concentration of 1000 ppm, to the desired concentration. Further test concentrations are prepared by dilution with emulsifier containing water.
Maize (Zea mays) leaf sections are sprayed with a preparation of the active ingredient of the desired concentration. Once dry, the leaf sections are infested with fall armyworm larvae (Spodoptera frugiperda).
After 7 days mortality in % is determined. 100% means all caterpillars have been killed and 0% means none of the caterpillars have been killed.

[5] = tested on: Musca domestica strain WHO-N; experiment: Musca domestica test (MUSCDO surface treatment & contact assay); settings: surface concentration 20 mg/m^2, 30 minutes exposure, 24 hours after contact, read-out: efficacy (mortality)
Experimental: Musca domestica Test (MUSCDO Surface Treatment & Contact Assay)
(§6) Solvent: Aceton+2000 ppm rapeseed oil methyl ester (RME)
In order to produce a sufficient, active ingredient containing solution it is necessary to solve the test compound in the solvent-mix (acetone at 2 mg/ml/RME 2000 ppm). This solution is pipetted onto a glazed tile and after evaporation of the acetone, adult flies of the species Musca domestica strain WHO-N are placed onto the dried surface. The exposure time is 30 minutes. Mortality in percent (%) is determined 24 hours after contact of the insects to the treated surface. 100% mortality means that all tested insects are dead, whereas 0% means that no insect died.

[6] = tested on: adult unfed cat fleas (Ctenocephalides felis); experiment: Ctenocephalides felis oral test; settings: 48 h
Experimental: Ctenocephalides felis—Oral Test
as §2
To produce a suitable preparation of active compound, 10 mg of active compound are dissolved in 0.5 ml solvent, and the concentrate is diluted with cattle blood to the desired concentration.
Approximately 20 adult unfed cat fleas (Ctenocephalides felis) are placed in flea chambers. The blood chamber, sealed with parafilm on the bottom, are filled with cattle blood supplied with compound solution and placed on the gauze covered top of the flea chamber, so that the fleas are able to suck the blood. The blood chamber is heated to 37° C. whereas the flea chamber is kept at room temperature.
After 2 days mortality in % is determined. 100% means all the fleas have been killed; 0% means none of the fleas have been killed.

[7] = tested on: adult brown dog ticks (Rhipicephalus sanguineus); experiment: Rhipicephalus sanguineus in-vitro contact test with adult brown dog ticks; settings: 5 μg/cm^2 (=500 g/ha), after 48 hours, read-out: efficacy (ticks dead or moribund)
Experimental: Rhipicephalus sanguineus—In-Vitro Contact Tests with Adult Brown Dog Ticks
as §1
After the solvent has evaporated, each test tube is filled with 5-10 adult brown dog ticks (Rhipicephalus sanguineus), closed with a perforated lid and incubated in a lying position at room temperature and relative humidity. After 48 hours efficacy is determined. The ticks are patted on the ground of the tubes and are incubated on a heating plate at 45-50° C. for at most 5 minutes. Immotile or uncoordinated moving ticks, which are not able to escape the heat by climbing upwards, are marked as dead or moribund.
An efficacy of 100% means all ticks are dead or moribund; 0% means no ticks are dead or moribund.

[8] = tested on: green peach aphid (Myzus persicae); experiment: Myzus persicae oral test; settings: 120 h
Experimental: Solvent: 100 parts by weight acetone
To produce a suitable preparation of active compound, 1 part by weight of active compound is mixed with the stated amount of solvent, and the concentrate is diluted with water to the desired concentration. 50 μL compound solution is filled in microtiter plates and 150 μL IPL41 insect medium (33%+15% sugar) is added to obtain a total volume of 200 μL per well. Afterwards the plates are sealed with parafilm through which a mixed population of the green peach aphid (Myzus persicae) can suck on the compound preparation.
(§7) After 5 days mortality in % is determined. 100% means all aphids have been killed and 0% means none of the aphids have been killed.

[9] = tested on: Aedes aegypti strain MONHEIM; experiment: Aedes aegypti test (AEDSAE surface treatment & contact assay); settings: 24 hours after contact, read-out: efficacy (mortality)
Experimental: Aedes Aegypti Test (AEDSAE Surface Treatment & Contact Assay)
as §6
In order to produce a sufficient, active ingredient containing solution it is necessary to solve the test compound in the solvent-mix (acetone at 2 mg/ml/RME 2000 ppm). This solution is pipetted onto a glazed tile and after evaporation of the acetone, adult mosquitoes of the species Aedes aegypti strain MONHEIM are placed onto the dried surface. The exposure time is 30 minutes. Mortality in percent (%) is determined 24 hours after contact of the insects to the treated surface. 100% mortality means that all tested insects are dead, whereas 0% means that no insect died.

[10] = tested on: adult cat fleas (Ctenocephalides felis); experiment: Ctenocephalides felis in-vitro contact test, adult cat flea; settings: 5 μg/cm^2 (=500 g/ha), after 48 hours, read-out: efficacy (fleas dead or moribund)
Experimental: Ctenocephalides felis—In-Vitro Contact Tests Adult Cat Flea 9 mg compound is solved in 1 mL acetone and diluted with acetone to the desired concentration. 250 μL of the test solution is filled in 25 mL glass test tubes and homogeneously distributed on the inner walls by rotation and tilting on a shaking device (2 h at 30 rpm). With a compound concentration of 900 ppm, an inner surface of 44.7 cm^2 and a homogeneous distribution, a dose of 5 μg/cm^2 is achieved.
After the solvent has evaporated, each test tube is filled with 5-10 adult cat fleas (Ctenocephalidesfelis), closed with a perforated lid and incubated in a lying position at room temperature and relative humidity.
After 48 hours efficacy is determined. The fleas are patted on the ground of the tubes and are incubated on a heating plate at 45-50° C. for at most 5 minutes. Immotile or uncoordinated moving fleas, which are not able to escape the heat by climbing upwards, are marked as dead or moribund.
An efficacy of 100% means all fleas are dead or moribund; 0% means no fleas are dead or moribund.

[11] = tested on: green peach aphid (Myzus persicae); experiment: Myzus persicae spray test; settings: foliar, 120 h, after 5 days, Chinese cabbage leaf disks
Experimental: Myzus persicae—spray test
as §4, §3, §5
Chinese cabbage (Brassica pekinensis) leaf disks infected with all instars of the green peach aphid (Myzus persicae), are sprayed with a preparation of the active ingredient of the desired concentration.
as §7

Row | SMILES | pest or weed control at 5 µg/cm2 [1] [%] | pest or weed control at 0.004 mg [2] [%] | pest or weed control at 0.02 mg [2] [%] | pest or weed control at 32 µg/disc, 100 g/ha [3] [%] | mortality at 100 g/ha [4] [%] | mortality at 20 mg/m2 [5] [%] | mortality at 100 ppm [6] [%] | pest or weed control at 5 µg/cm2, 500 g/ha [7] [%] | mortality at 4 ppm [8] [%] | mortality at 4 mg/m2 ([9]; surface concentration 4 mg/m^2, 30 minutes exposure) [%] | mortality at 20 mg/m2 ([9]; surface concentration 20 mg/m^2, 30 minutes exposure) [%] | pest or weed control at 5 µg/cm2, 500 g/ha [10] [%] | mortality at 100 g/ha [11] [%]
1 | CC(NC(=O)c1cc(Cl)cc(C(F)(F)F)c1)c1nc(Cl)nn1-c1ccc(Cl)cn1 (racemic) [Example I-017, 3-chloro-N-[1-[5-chloro-2-(5-chloro-2-pyridyl)-1,2,4-triazol-3-yl]ethyl]-5-(trifluoromethyl)benzamide] | 100 | 100 | 100 | 100 | 83 | – | – | – | – | – | – | – | –
2 | CC(NC(=O)c1cc(Cl)cc(C(F)(F)F)c1)c1nc(I)nn1-c1ccc(Cl)cn1 (racemic) [Example I-019, 3-chloro-N-[1-[2-(5-chloro-2-pyridyl)-5-iodo-1,2,4-triazol-3-yl]ethyl]-5-(trifluoromethyl)benzamide] | 90 | 100 | 100 | 100 | 100 | 80 to 100 | – | – | – | – | – | – | –
3 | CC(NC(=O)c1cc(Cl)cc(C(F)(F)F)c1)c1nc(Cl)nn1-c1ncccn1 (stereo not shown) [Example I-004] | 100 | 100 | 100 | 100 | 100 | – | 90 | 100 | 100 | 80 to 100 | 80 to 100 | – | –
4 | CC(NC(=O)c1cc(Cl)cc(Cl)c1)c1nc(Cl)nn1-c1ncccn1 (stereo not shown) [Example I-005] | – | 100 | 100 | 100 | 100 | – | 100 | 100 | – | – | – | – | –
5 | CC(NC(=O)c1cc(Cl)nc(Cl)c1)c1nc(Cl)nn1-c1ncccn1 (stereo not shown) [Example I-006] | 100 | 80 | – | 100 | – | – | 100 | 80 | 90 | – | – | 100 | 90
6 | CC(NC(=O)c1cncc(C(F)(F)F)c1)c1nc(Br)nn1-c1ncccn1 (stereo not shown) [Example I-015] | 100 | 100 | – | 80 | – | – | 100 | – | – | – | – | – | –
7 | CC(NC(=O)c1cc(Br)cc(C(F)(F)F)c1)c1nc(I)nn1-c1ncccn1 (stereo not shown) [Example I-022] | 100 | – | – | 100 | 100 | – | 90 | 80 | 100 | – | – | – | –
8 | CC(NC(=O)c1cc(Br)cc(Br)c1)c1nc(I)nn1-c1ncccn1 (stereo not shown) [Example I-023] | – | – | – | – | – | – | 100 | – | – | – | – | – | –
